Results on two compounds are retold here after patent US20140011811A1, “MYOSIN BINDING PROTEIN-C FOR USE IN METHODS RELATING TO DIASTOLIC HEART FAILURE” (The United States Government as represented by the …, priority 2011, published 2014).

One assay has as its system DOCA-salt mice. The assay is described as follows: Echocardiography (mitral pulse wave Doppler flow and tissue Doppler imaging) in DOCA-salt mouse model of diastolic dysfunction. The assay is classed as in vivo. The conditions noted are these: DOCA-salt+BH4 mice, BH4 supplemental diet 5 mg BH4/day, postoperative day 11 to 18, echocardiography day 18. The method, then:
Previously, we have shown that the DOCA-salt mouse model leads to mild hypertension, NOS uncoupling, myocardial oxidative stress, and diastolic dysfunction. A gradual and mild elevation in blood pressure was induced by unilateral nephrectomy, subcutaneous implantation of a controlled release deoxycorticosterone acetate (DOCA) pellet (0.7 mg/d; Innovative Research of America, Sarasota, Fla.), and substituting drinking water with 1.05% saline. Control animals underwent a sham operation, had placebo pellet implantation, and received water without salt.
Mice were divided into two groups which received a control diet (sham N=7; DOCA-salt N=10) and two groups which received a BH4 supplemental diet of 5 mg BH4/day (Research Diets Inc, New Brunswick, N.J.; sham+BH4 N=8; DOCA-salt+BH4 N=8). The supplemental diet began on day 11 after surgery, and continued until day 18, when the mice were analyzed and sacrificed.
Ten days after surgery, we employed echocardiography to characterize the diastolic dysfunction. […] The images for each mouse were recorded for at least 5 s (30-40 cardiac cycles) from which three to five representative cycles with the highest quality imaging were selected. Percent fractional shortenin (% FS) were calculated as 100×(LVEDd)-(LVESd)/(LVEDd) and percent LV ejection fraction (%EF) was calculated as 100×[(7/2.4+LVEDd)×LEDd^3]−[(7/2.4+LVESd)×LVESd^3]/[(7/2.4+LVEDd)×LEDd^3]. […]

For assay [1], the system named is myosin binding protein C (MyBP-C). The assay is described as follows: Western immunoblotting of S-glutathionylation of MyBP-C in cardiac myofilaments from treated DOCA-salt and sham mice. The settings on record: chronic ranolazine diet (~1 g/day tablet with 5 mg ranolazine and 0.3 mg P450 inhibitor), postoperative day 11 to 18. The class given is in vivo, mouse.
Procedure: Chronic Administration of Ranolazine: A special diet contained 5 mg ranolazine, 0.3 mg P450 inhibitor, and 0.25 mg red food color was pressed into a 1-g nutritionally complete grain-based tablet (Harlan, Madison, Wis.). The control diet contained 0.3mg P450 inhibitor and 0.25 mg yellow food color pressed into the same type of 1-g tablets. DOCA-salt and sham mice consumed daily ˜1g of the special diet from postoperative day 11 to 18. Western blot analysis was used to detect for glutathionylated proteins. […] Using the protein concentration determined from an RC-DC (Bio-Rad) assay, 40 μg of total protein was applied to 1D 12% resolving SDS-PAGE gel and transferred onto a 0.2 μM Polyvinylidene fluoride (PVDF) membrane. […] Anti-glutathione mouse monoclonal primary antibody (Virogen, Watertown, Mass.) was used at 1:1000 dilution along with anti-mouse HRP-conjugated secondary antibody (Sigma) at 1:100,000 dilution to detect for S-glutathionylation.10 Optical density of the bands was measured with ImageQuant TL (GE Healthcare) and exported to Excel for further analysis. […] Using the protein concentration determined from an RC-DC (Bio-Rad) assay, 40 µg of total protein was applied to a 12% SDS-PAGE gel and transferred onto a 0.2 pm PVDF membrane. […] Optical density of the bands was measured with ImageQuant TL (GE Healthcare) and exported to Excel for further analysis. […]
In another assay the test system is MyBP-C. The assay is described as follows: Pro-Q Diamond gel stain of phosphorylation of MyBP-C in myofibrils from treated DOCA-salt and sham mice. The class given is in vivo, mouse. The settings on record: DOCA-salt or sham mice treated as in Examples 1 and 2. The method, then: DOCA-salt or sham mice were administered ranolazine or BH4 as essentially described in Examples 1 and 2, respectively. Pro-Q Diamond (Invitrogen) gel stain was used to detect changes in phosphorylation states of MyBP-C. Myofibrils were prepared from DOCA-salt and sham models of the mice hearts, and pellets were solubilized in a non-reducing 2× laemmli buffer (4% SDS, 20% glycerol, 0.004% bromophenol blue, and 0.125 M Tris HCl pH 6.8). 25 mM N-ethylmaleimide (NEM) was added to the standard rigor buffer with Triton X-100, the standard rigor wash buffer, and the 2× Laemmli buffer. An RC-DC assay (BioRad) was used to determine protein concentrations. Samples were diluted at 1:1 ratio in reducing sample buffer (8 M urea, 2 M thiourea, 0.05 M tris pH 6.8, 75 mM DTT, 3% SDS, and 0.05% bromophenol blue and approximately 10 μg of protein was loaded on to a 12% resolving 1D SDS-PAGE gel. The gels were stained and destained with Pro-Q Diamond according to the manufacturer's recommendations prior to the imaging with a Typhoon 9410 scanner (GE Healthcare). Coomassie R-250 staining was used to normalize protein load to both actin and the whole lane. Optical density of the proteins was determined using ImageQuant TL (GE Healthcare) software and results were exported to Excel for further analysis.

The structures appear in SMILES notation.

`C[C@H](O)[C@H](O)[C@H]1CNc2nc(N)[nH]c(=O)c2N1` [BH4, tetrahydrobiopterin]: the “ratio of E′A′ (mitral tissue Doppler E′/A′)” value in the assay on DOCA-salt mice (vs. DOCA-salt 0.74±0.05, P<0.001) is 1.12±1.10. The “E/E′ ratio, a measure of left atrial pressure” value in the assay with DOCA-salt mice (vs. DOCA-salt 43.7±2.7, P<0.01) is recorded as 34.5±2.2.
In the case of `COc1ccccc1OCC(O)CN1CCN(CC(=O)Nc2c(C)cccc2C)CC1` (stereo not shown) [ranolazine], the MyBP-C glutathionylation entry in assay [1] is reported as “regressed level”. For the same compound, in the assay with MyBP-C, the “phosphorylation levels of MyBP-C” value was “did not affect”.
